According to patent US20220289765A1, “CRYSTAL OF CARCINOGENIC FUSED KINASE INHIBITOR AND APPLICATIONS THEREOF” (Simcere Pharmaceutical Co., Ltd., priority 2019, published 2022):
Where two headings read alike, the source gives them in different places. Values belong to the compound of their own block, whether it stands above or below them.

What was measured:
[1] = Cassette pharmacokinetic test in mice (plasma, brain, CSF); type: in vivo, male CD-1 mice
Protocol: The pharmacokinetic behaviors of the compounds of the present invention in mice were studied and the pharmacokinetic properties thereof were evaluated.

[2] = Pharmacokinetic test in mice; type: in vivo; conditions: mouse, plasma; PO (10 mL/kg [sic]) vs IV 3 mg/kg, male CD-1 mice; read-out: Bioavailability F %
Protocol: The drug concentrations of the compounds in plasma at different time points were determined by LC/MS/MS method after single intravenous (IV) and intragastric (PO) administration of the compounds to 7-9 week old male CD-1 mice as the test animals. The pharmacokinetic behaviors of the compounds of the present invention in mice were studied and pharmacokinetic properties thereof were evaluated.
The compounds were prepared into clear solutions using 5% DMSO+10% solutol+85% water as a solvent for administration in IV (intravenous injection) and PO (gavage) groups. The administration dosage of each compound was 3 mg/kg for the IV group and […] for the PO group.

[3] = Accelerated stability test of solid; type: physicochemical; conditions: for Purity: HPLC area purity
From the text: Samples were respectively taken at 1 month, 2 months and 3 months to test the solid chemical purity (HPLC area purity) and crystal form.

[4] = Solid stability test, influence factors (high temperature, high humidity); type: physicochemical
Protocol: The sample placed under a high temperature condition was sealed and left to stand in a stability test chamber at 60° C. After 10 days, the sample was taken and tested for solid purity and crystal form. The sample placed under a high humidity condition was left to stand at room temperature and 92.5% RH humidity (the mouth of the sample bottle was wrapped with a layer of sealing film and 15˜20 small holes were evenly punched in the sealing film), and the samples were taken and tested for solid purity and crystal form after 5 days/10 days, respectively.

[5] = PO @ 3 mpk, cassette, brain, 2 h
[6] = mouse, plasma, 1 mg/kg, IV @ 1 mpk, cassette, male CD-1 mice, read-out: Apparent Distribution Volume Vd
[7] = mouse, plasma, 1 mg/kg, IV @ 1 mpk, cassette, male CD-1 mice, read-out: Area under Curve AUC0-inf
[8] = mouse, plasma, 1 mg/kg, IV @ 1 mpk, cassette, male CD-1 mice, read-out: Half-life T1/2 (converted)
[9] = mouse, plasma, 1 mg/kg, IV @ 1 mpk, cassette, male CD-1 mice, read-out: Initial Concentration C0
[10] = mouse, plasma, 3 mg/kg, PO @ 3 mpk vs IV @ 1 mpk, cassette, male CD-1 mice, read-out: Bioavailability F %
[11] = mouse, plasma, 3 mg/kg, PO @ 3 mpk, cassette, male CD-1 mice, read-out: Area under Curve AUC0-inf
[12] = mouse, plasma, 3 mg/kg, PO @ 3 mpk, cassette, male CD-1 mice, read-out: Peak Concentration Cmax
[13] = mouse, plasma, 3 mg/kg, PO @ 3 mpk, cassette, male CD-1 mice, read-out: Time to Peak Tmax
[14] = male, CD-1, mouse, in vivo, iv, 1 mg/kg
[15] = male, CD-1, mouse, in vivo, po, 3 mg/kg
[16] = Room temperature/92.5% RH, 5 days
[17] = Room temperature/92.5% RH, 10 days

SMILES: C[C@@H]1CCc2ncc(F)cc2[C@H]2CCCN2c2ccn3ncc(c3n2)C(=O)N1 [LOXO-195, reference compound]
bioavailability [2]: 74%

SMILES: O=C(Nc1cnn2ccc(N3CCC[C@@H]3c3cc(F)ccc3F)nc12)N1CC[C@H](O)C1 [LOXO-101, Larotrectinib]
bioavailability [2]: 28%
Drug Concentration in Cerebrospinal Fluid at 0.5 h ([1]; PO @ 3 mpk, cassette, CSF): 15 nmol/kg
Drug Concentration in Cerebrospinal Fluid at 2 h ([1]; PO @ 3 mpk, cassette, CSF, 2 h): 3 nmol/kg
Drug Concentration in Brain at 0.5 h ([1]; PO @ 3 mpk, cassette, brain): 40 nmol/kg
Drug Concentration in Brain at 2 h [1, 5]: 20 nmol/kg
Vd [1, 6]: 1.57 L/kg
AUC(0-inf) [1, 7]: 1.72 µM·h
half-life [1, 8]: 72.6 min
C0 [1, 9]: 2380 nM
bioavailability [1, 10]: 51%
AUC(0-inf) [1, 11]: 2.72 µM·h
Cmax [1, 12]: 1350 nM
Tmax [1, 13]: 30 min

SMILES: O=C1NC2(CC2)COc2ncc(F)cc2[C@H]2CCON2c2ccn3ncc1c3n2
Relative Purity* ([3]; 40° C./75% RH, 1 month): 100.0
Purity ([3]; 40° C./75% RH, 1 month): 100.0
Relative Purity* ([3]; 40° C./75% RH, 2 months): 100.0
Purity ([3]; 40° C./75% RH, 2 months): 100.0
Relative Purity* ([3]; 40° C./75% RH, 3 months): 100.0
Purity ([3]; 40° C./75% RH, 3 months): 100.0
Relative Purity* ([3]; 60° C./75% RH, 1 month): 99.9
Purity ([3]; 60° C./75% RH, 1 month): 99.9
Relative Purity* ([3]; 60° C./75% RH, 2 months): 100.0
Purity ([3]; 60° C./75% RH, 2 months): 100.0
Relative Purity* ([3]; 60° C./75% RH, 3 months): 100.0
Purity ([3]; 60° C./75% RH, 3 months): 100.0
Test Results Purity ([4]; 60° C, sealed, 10 days): 100.0%
Test Results Crystal Form ([4]; 60° C, sealed, 10 days, XRPD): Crystal Form C
Test Results Relative Purity* ([4]; 60° C, sealed, 10 days, purity of stability sample/purity of starting sample x100%): 100.0%
Test Results Crystal Form [4, 16]: Crystal Form C
Test Results Purity [4, 16]: 100.0%
Test Results Relative Purity* [4, 16]: 100.0%
Test Results Crystal Form [4, 17]: Crystal Form C
Test Results Purity [4, 17]: 100.0%
Test Results Relative Purity* [4, 17]: 100.0%

Results, then the compound that gave them:

Drug Concentration in Cerebrospinal Fluid at 0.5 h ([1]; PO @ 3 mpk, cassette, CSF): 8 nmol/kg
Drug Concentration in Brain at 0.5 h ([1]; PO @ 3 mpk, cassette, brain): 50 nmol/kg
Drug Concentration in Brain at 2 h [1, 5]: 41 nmol/kg
Vd [1, 6]: 2.63 L/kg
AUC(0-inf) [1, 7]: 2.86 µM·h
half-life [1, 8]: 221 min
C0 [1, 9]: 2250 nM
bioavailability [1, 10]: 64%
AUC(0-inf) [1, 11]: 5.49 µM·h
Cmax [1, 12]: 1540 nM
Tmax [1, 13]: 45 min
SMILES: C[C@H]1CNC(=O)c2cnn3ccc(nc23)N[C@H](C)c2cc(F)ccc2O1 [TPX-0005]

AUC(0-inf) [1, 14]: 3.77 µM·h
C0 [1, 14]: 2810 nM
Vd [1, 14]: 1.24 L/kg
half-life [1, 14]: 116 min
AUC(0-inf) [1, 15]: 3.26 µM·h
Cmax [1, 15]: 586 nM
Tmax [1, 15]: 45 min
bioavailability [1, 15]: 23%
Drug Concentration in Brain at 2 h ([1]; male, CD-1, mouse, in vivo, po, 3 mg/kg, 2 h): 30 nmol/kg
SMILES: CN1CCN(c2ccc(C(=O)Nc3n[nH]c4ccc(Cc5cc(F)cc(F)c5)cc34)c(NC3CCOCC3)c2)CC1 [RXDX-101, Entrectinib]
